Data taken from patent US12458643B2, “Antidepressant/anxiolytic drug in which PAC1 receptor antagonist is used” (KAGOSHIMA UNIVERSITY, priority 2020, dated 2025).

Assays:
Format in all cases: in vivo, mouse
normal mice [1] = experiment: Elevated plus maze test in normal mice; details: normal male C57BL/6J mice, 30 mg/kg i.p., 60 min after administration, 5 min test
Procedure: The effects of PA-8 and PA-81004 on normal mice were evaluated by an elevated plus maze test (test that exploits the properties of mice to avoid heights and prefer to stay near walls; in this test, anxiety-like behavior is evaluated by placing the mice at the center of a maze disposed at a height of 50 cm in which a 26 cm long and 8 cm wide open arm without walls and a closed-arm with walls are disposed in a cross shape, and measuring a time spent in the open arm and the number of entries thereto).
Male C57BL/6J mice (8 to 12 weeks old) were acclimatized to a laboratory (illuminance: 50 lx) for 60 minutes. Then, a vehicle (10% DMSO solution; dissolved in saline; n=13), PA-8 (30 mg/kg; n=12) or PA-81004 (30 mg/kg; n=12) was intraperitoneally administered thereto (0.1 mL/10 g). After a lapse of 60 minutes after administration, the test was conducted for 5 minutes. The results are shown in FIG. 3 (A: total distance traveled, B: the number of open arm (course without walls) entries, C: time spent in the open arm).
The effects of PA-9 and PA-915 on normal mice were evaluated by the elevated plus maze test.
Male C57BL/6J mice (8 to 12 weeks old) were acclimatized to a laboratory (illuminance: 50 lx) for 60 minutes. Then, a vehicle (10% DMSO solution; dissolved in saline; n=8), PA-9 (30 mg/kg; n=8) or PA-915 (30 mg/kg; n=7) was intraperitoneally administered thereto (0.1 mL/10 g). After a lapse of 60 minutes after administration, the test was conducted for 5 minutes. The results are shown in FIG. 7 (A: total distance traveled, B: the number of open arm entries, C: time spent in the open arm).

normal mice [2] = experiment: Forced swim test in normal mice; details: normal male C57BL/6J mice, 30 mg/kg i.p., 60 min after administration, 6 min swim
Procedure: The effects of PA-8 and PA-81004 on normal mice were evaluated by a forced swim test (test that exploits the switch of mice caused to swim in an inevitable environment from active escape behavior to a passive state of floating or immobility; in this test, depressive-like behavior is evaluated by placing the mice in an acrylic cylinder of 20 cm in diameter and 25 cm in height filled with water (water temperature: 25° C.) up to a depth of 15 cm, and measuring a passive floating or immobility time).
(§1) Male C57BL/6J mice (8 to 12 weeks old) were acclimatized to a laboratory (illuminance: 200 lx) for 60 minutes. Then, a vehicle (10% DMSO solution; dissolved in saline; n=9), PA-8 (30 mg/kg; n=9) or PA-81004 (30 mg/kg; n=9) was intraperitoneally administered thereto (0.1 mL/10 g). After a lapse of 60 minutes after administration, the mice were forced to swim for 6 minutes, and an immobility time was measured.
The effects of PA-9 and PA-915 on normal mice were evaluated by the forced swim test.
as §1, with “n=10), PA-9” for “n=9), PA-8”, “PA-915” for “PA-81004”

[3] = system: single-restraint stress mice; experiment: Single-restraint stress-induced anxiety-like behavior, open field test; details: 30 mg/kg i.p. 30 min before 30 min restraint; 10 min test
Procedure: Male C57BL/6J mice (8 to 12 weeks old) were acclimatized to a laboratory (illuminance: 40 lx) for 60 minutes. Then, a vehicle (10% DMSO solution; dissolved in saline; n=11), PA-8 (30 mg/kg; n=11) or PA-81004 (30 mg/kg; n=8) was intraperitoneally administered thereto (0.1 mL/10 g). After a lapse of 30 minutes after administration, restraint stress (stress caused by holding the mice in tubes of 2.8 cm in diameter with a hole for breathing) was applied thereto for 30 minutes. The mice were allowed to freely explore an open field cage for 10 minutes from immediately after the completion of restraint. Mice that freely behaved in a home cage for 30 minutes without being held and without accessing water and food were used as a control (n=10). The results are shown in FIG. 9 (A: total distance traveled, B: the number of center zone entries, C: time spent in the center zone). The data was indicated by mean±standard error. **P<0.01, *P<0.05 (One-way ANOVA followed by Tukey-Kramer test). […] Male C57BL/6J mice (8 to 12 weeks old) were acclimatized to a laboratory (illuminance: 40 lx) for 60 minutes. Then, a vehicle (10% DMSO solution; dissolved in saline; n=10), PA-9 (30 mg/kg; n=13) or PA-915 (30 mg/kg; n=12) was intraperitoneally administered thereto (0.1 mL/10 g). After a lapse of 30 minutes after administration, restraint stress (stress caused by holding the mice in tubes of 2.8 cm in diameter with a hole for breathing) was applied thereto for 30 minutes. The mice were allowed to freely explore an open field cage for 10 minutes from immediately after the completion of restraint. Mice that freely behaved in a home cage for 30 minutes without being held and without accessing water and food were used as a control (n=10). The results are shown in FIG. 11 (A: total distance traveled, B: the number of center zone entries, C: time spent in the center zone). The data was indicated by mean±standard error. **P<0.01, *P<0.05 (One-way ANOVA followed by Tukey-Kramer test).

Row | SMILES | pharmacological action in elevated plus maze test (total distance, open arm entries, time in open arm) (normal mice [1]) | pharmacological action in forced swim test (immobility time) (normal mice [2]) | effect on single-restraint stress-induced anxiety-like behavior (open field test) [3]
1 | Nc1nc2c(c(=O)[nH]1)C(c1cccc(OC(F)(F)F)c1)CC(=O)N2 (stereo not drawn) [PA-81004, 2-Amino-5-(3-trifluoromethoxyphenyl)-5,8-dihydro-3H,6H-pyrido[2,3-d]pyrimidine-4,7-dione] | no pharmacological action | no pharmacological action | improving effects
2 | C=CCOc1ccc(C2CC(=O)Nc3nc(N)[nH]c(=O)c32)cc1OC (stereo not drawn) [PA-8] | no pharmacological action | no pharmacological action | improving effects
3 | O=C(NCCc1c[nH]cn1)C1CC(=O)N(c2n[nH]c3ccccc23)C1 (stereo not drawn) [PA-9] | no pharmacological action | no pharmacological action | improving effects
